In the experiment the target is T1, human GR (Homo sapiens, UniProt P04150).
T1 sequence (P04150 1-777): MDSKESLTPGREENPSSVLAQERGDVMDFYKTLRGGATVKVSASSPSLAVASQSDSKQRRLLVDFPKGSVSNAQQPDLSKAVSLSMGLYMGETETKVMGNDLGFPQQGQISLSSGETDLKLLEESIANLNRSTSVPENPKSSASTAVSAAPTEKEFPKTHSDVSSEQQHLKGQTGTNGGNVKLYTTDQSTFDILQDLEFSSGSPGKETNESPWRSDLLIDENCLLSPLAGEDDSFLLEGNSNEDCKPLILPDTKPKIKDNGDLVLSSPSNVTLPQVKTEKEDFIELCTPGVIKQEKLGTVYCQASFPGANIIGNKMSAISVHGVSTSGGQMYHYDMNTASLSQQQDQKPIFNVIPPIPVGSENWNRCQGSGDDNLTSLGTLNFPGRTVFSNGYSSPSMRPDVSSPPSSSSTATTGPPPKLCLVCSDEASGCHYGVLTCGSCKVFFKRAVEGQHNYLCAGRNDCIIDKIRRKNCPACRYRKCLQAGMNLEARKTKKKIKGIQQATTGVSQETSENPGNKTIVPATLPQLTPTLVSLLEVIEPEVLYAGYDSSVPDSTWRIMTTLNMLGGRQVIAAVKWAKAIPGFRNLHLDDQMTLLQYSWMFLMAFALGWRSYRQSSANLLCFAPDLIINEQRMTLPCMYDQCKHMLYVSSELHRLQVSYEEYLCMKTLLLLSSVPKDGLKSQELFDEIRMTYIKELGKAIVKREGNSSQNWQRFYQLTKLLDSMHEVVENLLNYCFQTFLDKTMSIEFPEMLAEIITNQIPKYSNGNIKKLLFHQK
Nature of the experiment: Transrepression Assay (GITAR), TNFα-β-lactamase reporter in U937 cells. Details: U937 cells contain an endogenous glucocorticoid receptor (GR); endogenous in cells; host or cells: U937 cells stably transfected with the TNF-alpha promoter/beta-lactamase reporter. Format: cell-based. To be noted: for GITAR > GRAMM % SEP: GITAR Emax minus GRAMMER Emax; for EC50: U937 cells, inflection point, read-out: Transrepression U937 Cells GITAR IP. The method in brief:
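Repression normalised to 100 nM dexamethasone (100%), measured with CCF2-AM β-lactamase substrate after 70–90 min at room temperature. Stably transfected U937 cells were exposed to compound 30–45 min, then to PMA (5 ng/ml final) plus LPS (100 ng/ml final) overnight (~18 hr), 37° C.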

[1] abbreviates: U-937, U937 cells, maximum activity, read-out: Transrepression U937 Cells GITAR Emax.
[2] abbreviates: U-937, activity repressed by 100 nM dexamethasone alone set as 100%, read-out: maximal activity in the transrepression (GITAR) assay.

The text below walks through data of patent US8299048B2, “Hexahydrocyclopentyl[f]indazole sulfonamides and derivatives thereof as selective glucocorticoid receptor modulators” (Merck Sharp & Dohme Corp., priority 2008, dated 2012).

Like-named read-outs stand apart in the source and are kept apart here. Where only a bound is given, the exact number is not on record here.

With `COC(=O)c1ccccc1CS(=O)(=O)N(CC(O)C(F)(F)F)C[C@H]1CCC2=Cc3c(cnn3-c3ccc(F)cc3)C[C@@]21C` (stereo partly drawn) [Example 162, methyl 2-({[{[(4αR,5S)-1-(4-fluorophenyl)-4α-methyl-1,4,4α,5,6,7-hexahydrocyclopenta[f]indazol-5-yl]methyl}(3,3,3-trifluoro-2-hydroxypropyl)amino]sulfonyl}methyl)benzoate], the “GITAR > GRAMM % SEP” value stood at 3.7% and the EC50 was determined as 202 nM. In addition, the Emax under setting [1] amounted to 90.8%. Moreover, the Emax under setting [2] is > 5%.
On to `C[C@]12Cc3cnn(-c4ccc(F)cc4)c3C=C1CC[C@@H]2CN(CCc1ccccc1CO)S(=O)(=O)CC(F)(F)F` [Example 163, 2,2,2-trifluoro-N-{[(4αR,5S)-1-(4-fluorophenyl)-4α-methyl-1,4,4α,5,6,7-hexahydrocyclopenta[f]indazol-5-yl]methyl}-N-{2-[2-(hydroxymethyl)phenyl]ethyl}ethanesulfonamide], for which the “GITAR > GRAMM % SEP” value turned out to be 38.6% and the EC50 was found to be 342 nM. For the same compound, the Emax under setting [1] was 86.9%. In addition, the Emax under setting [2] was > 5%.
The matching figures for `C[C@]12Cc3cnn(-c4ccc(F)cc4)c3C=C1CC[C@@H]2CN(CC(O)C(F)(F)F)S(=O)(=O)Cc1ccccc1C(=O)O` (stereo partly drawn) [Example 164, 2-({[{[(4αR,5S)-1-(4-fluorophenyl)-4α-methyl-1,4,4α,5,6,7-hexahydrocyclopenta[f]indazol-5-yl]methyl}(3,3,3-trifluoro-2-hydroxypropyl)amino]sulfonyl}methyl)benzoic acid]: 23.0%, 1250 nM, 81.3% and > 5%.
`C[C@]12Cc3cnn(-c4ccc(F)cc4)c3C=C1CC[C@@H]2CN(CCc1ccccn1)S(=O)(=O)Cc1ccccn1` [Example 165, N-{[(4αR,5S)-1-(4-fluorophenyl)-4α-methyl-1,4,4α,5,6,7-hexahydrocyclopenta[f]indazol-5-yl]methyl}-1-pyridin-2-yl-N-(2-pyridin-2-ylethyl)methanesulfonamide]: the “GITAR > GRAMM % SEP” value is 23.4% and the EC50 was 286 nM. The Emax under setting [1] was determined as 61.1%. Further, the Emax under setting [2] was > 5%.
In the case of `C[C@]12Cc3cnn(-c4ccc(F)cc4)c3C=C1CC[C@@H]2CN(CCc1ccccn1)S(=O)(=O)Cc1ccncc1` [Example 166, N-{[(4αR,5S)-1-(4-fluorophenyl)-4α-methyl-1,4,4α,5,6,7-hexahydrocyclopenta[f]indazol-5-yl]methyl}-1-pyridin-4-yl-N-(2-pyridin-2-ylethyl)methanesulfonamide], the “GITAR > GRAMM % SEP” value is listed as 15.3% and the EC50 came out at 549 nM. The Emax under setting [1] was determined as 71.7%. Also, the Emax under setting [2] was > 5%.
For `C[C@]12Cc3cnn(-c4ccc(F)cc4)c3C=C1CC[C@@H]2CN(CC(O)C(F)(F)F)S(=O)(=O)Cc1ccccc1C(N)=O` (stereo partly drawn) [Example 167, 2-({[{[(4αR,5S)-1-(4-fluorophenyl)-4α-methyl-1,4,4α,5,6,7-hexahydrocyclopenta[f]indazol-5-yl]methyl}(3,3,3-trifluoro-2-hydroxypropyl)amino]sulfonyl}methyl) benzamide] the same measures were 12.5%, 159 nM, 87.4% and > 5%.
The matching figures for `Cc1noc(C)c1S(=O)(=O)N(C[C@H]1CCC2=Cc3c(cnn3-c3ccc(F)cc3)C[C@@]21C)C[C@@H](C)O` [Example 168, N-{[(4αR,5S)-1-(4-fluorophenyl)-4α-methyl-1,4,4α,5,6,7-hexahydrocyclopenta[f]indazol-5-yl]methyl}-N-[(2R)-2-hydroxypropyl]-3,5-dimethylisoxazole-4-sulfonamide]: 35.0%, 119 nM, 83.1% and > 5%.
